Columns and labels:
[1] = Exposure (AUC) in the LDLr KO mouse atherosclerosis study; conditions: male, LDLr KO (JAX #002207), in vivo, LDLr KO mice
Source text: LDLr KO mice (JAX #002207), 7 week old males, were obtained from The Jackson Laboratory (Bar Harbor, Me.). Upon arrival at the testing facility and continuing for a total of 10 weeks, mice were housed individually and fed the atherogenic diet TD.88137 (Teklad) ad libitum. During the first 6 weeks, the mice rested undisturbed in their cages. During the last 4 weeks, the mice received the test compound twice daily by oral gavage.

[2] = tested on: LTB4-induced phosphorylation of ERK in monocytes; experiment: Mouse pERK assay in whole blood; format: cell-based, 129SvEv mice; conditions: Monocyte, 20 nM LTB4
Experimental: The ability of the compound of Example 2 to block LTB4-induced signaling through BLT1 was assessed in whole blood obtained from healthy human volunteers and from 129SvEv mice that are the model strain for preclinical AAA efficacy evaluation.
Whole blood is collected from 129SvEv mice in 50 mM EDTA (Gibco). For in vitro experiments, 10 point dose response curves of test compounds are assayed at final concentrations of 20 nM-10 μM. 10 point ½ serial dilutions of compound at 1000× of final assayed concentration are prepared in DMSO. Compound is then diluted to 10× in DPBS (DMSO concentration is now 1%). 10 μL of compound dilutions (at 10× diluted in DPBS) or 1% DMSO in DPBS are added to wells of a 96 deep well plate. 80 μL whole blood is added and incubated for 20 min at room temperature (10 μL of anti-mouse LY6G-FITC antibody (BD Pharmingen) and 10 μl of anti-mouse CD11b-APC BD Biosciences at 1 μg/mL final concentrations are added for final 10 min) 11 μL of 10× pre-warmed LTB4 (final concentration 20 nM) is added and incubated at 37° C. for 2 min. Reaction is stopped with 1.5 mL of 1× Phosflow Lyse/Fix from BD Biosciences (pre-warmed to 37° C.). The plate is sealed, vortexed, and incubated at 37° C. for 10 min. Cells are washed once with 1.5 mL DPBS then permeablized with 1 mL BD Perm/Wash buffer (BD Biosciences) for 10 min at room temperature. […]

SMILES: CCCc1c(NC(=O)CC(C)(C)C(=O)[O-])cccc1OCCCOc1cc(O)c(-c2ccc(F)cc2)cc1CC.[Na+] [Example 2, Sodium 4-[[3-[3-[2-ethyl-4-(4-fluorophenyl)-5-hydroxy-phenoxy]propoxy]-2-propyl-phenyl]amino]-2,2-dimethyl-4-oxo-butanoate]
- AUC ([1]; 3 mg/kg BID oral gavage): 1110 ng·h/mL
- AUC ([1]; 10 mg/kg BID oral gavage): 5380 ng·h/mL
- AUC ([1]; 30 mg/kg BID oral gavage): 12800 ng·h/mL
- IC50 [2]: 243 nM
